pIC50: −log10 of the molar value.
How the values were obtained:
benzodiazepine receptors [1] = test: in vivo displacement of 3H-flunitrazepam from benzodiazepine receptors in living mouse brain; conditions: dose reducing specific 3H-flunitrazepam binding to 50% of control; mice, usually subcutaneously, 15 min before 3H-flunitrazepam i.v., killed after a further 20 min, forebrain membranes
Protocol: (§1) The pharmaceutical potency of the compounds of the present invention is evidenced by determining their capability for displacing radioactively-labelled flunitrazepam and the imidazobenzodiazepine ^3 H-Ro 15-1788 from such benzodiazepine receptors.
(§2) The displacement activity of the compounds of the invention has been determined by determining their IC50 and ED50 values. The IC50 value represents the concentration (nM, 30° C.) which causes a displacement of 50% of the specific binding of ^3 H-Ro 15-1788 in samples comprising a total volume of 1 ml.
The ED50 value represents the dose (mg/kg) of a test substance which causes the specific binding of flunitrazepam to benzodiazepine receptors in a living brain to be reduced to 50% of the control value.
Such an in vivo test is carried out as follows:
Groups of mice are injected with the test substance at different doses and usually subcutaneously. Fifteen minutes later ^3 H-flunitrazepam is given intravenously to the mice and, after a further twenty minutes, the mice are killed. Their forebrain membranes are removed and the radioactivity of these forebrain membranes is measured by scintillation counting. The ED50 value is determined from dose-response curves.

benzodiazepine receptors [2] = test: displacement of 3H-Ro 15-1788 from benzodiazepine receptors in vitro (rat cerebral cortical membrane homogenate); conditions: 50% displacement of specific binding of 3H-Ro 15-1788, 30° C.
Protocol: as §1, §2
The displacement test is performed as follows:
750 μl of rat cerebral cortical membrane homogenate was incubated with 100 μl of 5 nM ^3 H-Ro 15-1788 in water at 30° C. Then 100 μl of a solution of the test compound and 50 μl of Krebs buffer was added. After incubation the binding reaction was terminated by filtration through Whatman GF/B glass fibre filters followed by 2×5 ml wash with ice-cold buffer and the radioactivity was measured by scintillation counting. The IC50 was determined by including at least four concentrations of the test compound and log/probit analysis of the resulting data.

In the case of `COc1ccc2c(c1)C(=O)N(C)Cc1c(-c3nc(C)no3)ncn1-2`, the “in vivo ED50” value (benzodiazepine receptors [1]) was 4.0 mg/kg.

`CCc1noc(-c2ncn3c2C2CCN2C(=O)c2c(C)cccc2-3)n1` (stereo not drawn) was tested, and the “in vivo ED50” value (benzodiazepine receptors [1]) was 0.4 mg/kg and the pIC50 (benzodiazepine receptors [2]) was 7.52.

In the case of `CCc1noc(-c2ncn3c2CN(C)C(=O)c2c(C)cccc2-3)n1`, the “in vivo ED50” value (benzodiazepine receptors [1]) was 2.2 mg/kg and the pIC50 (benzodiazepine receptors [2]) was 7.35.

In the case of `Cc1cccc2c1C(=O)N1CCC1c1c(-c3nc(C4CC4)no3)ncn1-2` (stereo not drawn), the “in vivo ED50” value (benzodiazepine receptors [1]) was 0.2 mg/kg and the pIC50 (benzodiazepine receptors [2]) was 7.64.

With `CCc1nc(-c2ncn3c2CN(C)C(=O)c2c-3cccc2C(F)(F)F)no1` the “in vivo ED50” value (benzodiazepine receptors [1]) was 0.5 mg/kg and the pIC50 (benzodiazepine receptors [2]) was 8.25.

Source: patent US4670433A, “Oxadiazolyl imidazobenzodiazepine derivatives pharmaceutical compositions thereof, and method of treating therewith” (A/S Ferrosan, priority 1985, dated 1987)
